The target in series [1] is T1, HDAC6 (Homo sapiens, UniProt Q9UBN7).
T1 sequence (Q9UBN7 1-1215): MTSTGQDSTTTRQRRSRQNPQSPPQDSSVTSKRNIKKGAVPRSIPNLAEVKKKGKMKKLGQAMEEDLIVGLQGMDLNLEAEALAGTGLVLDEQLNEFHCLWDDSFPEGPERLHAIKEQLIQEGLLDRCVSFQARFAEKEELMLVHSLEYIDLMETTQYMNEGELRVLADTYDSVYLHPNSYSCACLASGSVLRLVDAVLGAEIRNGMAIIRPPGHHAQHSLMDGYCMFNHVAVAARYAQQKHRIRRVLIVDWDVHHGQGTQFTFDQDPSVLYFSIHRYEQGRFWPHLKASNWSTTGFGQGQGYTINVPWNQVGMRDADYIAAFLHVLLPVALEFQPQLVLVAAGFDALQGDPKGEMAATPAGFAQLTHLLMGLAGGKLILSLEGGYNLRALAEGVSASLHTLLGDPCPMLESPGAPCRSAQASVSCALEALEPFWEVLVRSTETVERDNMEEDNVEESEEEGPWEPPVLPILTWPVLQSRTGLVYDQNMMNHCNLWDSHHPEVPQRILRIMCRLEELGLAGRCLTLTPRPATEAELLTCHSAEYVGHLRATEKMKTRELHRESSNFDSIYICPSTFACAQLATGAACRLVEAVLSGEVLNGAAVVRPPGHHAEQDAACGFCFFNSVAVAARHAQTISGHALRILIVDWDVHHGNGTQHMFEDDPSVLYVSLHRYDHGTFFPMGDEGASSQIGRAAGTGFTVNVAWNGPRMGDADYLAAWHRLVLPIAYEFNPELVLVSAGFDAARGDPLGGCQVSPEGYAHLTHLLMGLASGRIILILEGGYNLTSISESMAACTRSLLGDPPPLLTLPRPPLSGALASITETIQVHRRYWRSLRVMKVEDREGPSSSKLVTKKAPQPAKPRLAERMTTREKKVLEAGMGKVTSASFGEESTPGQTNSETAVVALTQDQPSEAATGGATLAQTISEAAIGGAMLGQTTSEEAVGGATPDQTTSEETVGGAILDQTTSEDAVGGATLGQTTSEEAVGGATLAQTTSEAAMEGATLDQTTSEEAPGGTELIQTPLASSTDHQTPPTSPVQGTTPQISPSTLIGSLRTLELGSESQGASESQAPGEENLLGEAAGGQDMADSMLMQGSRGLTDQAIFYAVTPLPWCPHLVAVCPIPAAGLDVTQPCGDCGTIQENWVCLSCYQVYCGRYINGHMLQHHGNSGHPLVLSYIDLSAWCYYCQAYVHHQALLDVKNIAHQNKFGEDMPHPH
The experiment in a line: HDAC EMSA activity assay (Nanosyn). In kind it is biochemical. Details: The full-length human HDACs were recombinantly expressed and purified from SF9 insect cells; host or cells: SF9 insect cells. The settings on record: for IC50: EMSA (Nanosyn); for HDAC6 fold-selectivity: over the next closest HDAC isoform tested, * = selectivity ≥ indicated value.

Series [2] relates to MRC-9. The experiment in a line: Cytotoxicity assay (Cell Titer-Blue, 72 h). In kind it is cell-based. Background: Resazurin is reduced to fluorescent resorufin, in cell work by metabolically active cells.
The target in series [3] is T2, HDAC8 (Homo sapiens, UniProt Q9BY41).
T2 construct: The full-length human HDACs were recombinantly expressed and purified from SF9 insect cells; host or cells: SF9 insect cells
T2 sequence (Q9BY41 1-377): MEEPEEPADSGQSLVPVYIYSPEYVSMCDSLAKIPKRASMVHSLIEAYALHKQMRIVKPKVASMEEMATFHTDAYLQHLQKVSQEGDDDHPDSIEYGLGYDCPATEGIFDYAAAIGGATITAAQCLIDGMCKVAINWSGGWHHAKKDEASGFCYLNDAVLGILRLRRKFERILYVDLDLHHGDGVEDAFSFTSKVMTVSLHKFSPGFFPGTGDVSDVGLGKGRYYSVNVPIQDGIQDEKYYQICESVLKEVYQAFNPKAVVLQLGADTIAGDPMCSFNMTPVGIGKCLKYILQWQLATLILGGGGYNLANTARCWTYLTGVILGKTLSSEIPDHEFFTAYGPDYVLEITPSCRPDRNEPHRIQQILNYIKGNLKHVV
The experiment in a line: HDAC EMSA activity assay (Nanosyn). In kind it is biochemical. Particulars: for IC50: recombinant enzyme, EMSA (Nanosyn), read-out: In vitro IC50 HDAC8. Background: In EMSA bound probe runs differently from free probe, usually more slowly.

In series [4] the target is T3, HDAC3 (Homo sapiens, UniProt O15379).
T3 construct: The full-length human HDACs were recombinantly expressed and purified from SF9 insect cells; host or cells: SF9 insect cells
The experiment in a line: HDAC EMSA activity assay (Nanosyn). In kind it is biochemical. The settings on record: recombinant enzyme, read-out: In vitro IC50 HDAC3.

Series [5] deals with T4, HDAC11 (Homo sapiens, UniProt Q96DB2).
T4 construct: The full-length human HDACs were recombinantly expressed and purified from SF9 insect cells; host or cells: SF9 insect cells
T4 sequence (Q96DB2 1-347): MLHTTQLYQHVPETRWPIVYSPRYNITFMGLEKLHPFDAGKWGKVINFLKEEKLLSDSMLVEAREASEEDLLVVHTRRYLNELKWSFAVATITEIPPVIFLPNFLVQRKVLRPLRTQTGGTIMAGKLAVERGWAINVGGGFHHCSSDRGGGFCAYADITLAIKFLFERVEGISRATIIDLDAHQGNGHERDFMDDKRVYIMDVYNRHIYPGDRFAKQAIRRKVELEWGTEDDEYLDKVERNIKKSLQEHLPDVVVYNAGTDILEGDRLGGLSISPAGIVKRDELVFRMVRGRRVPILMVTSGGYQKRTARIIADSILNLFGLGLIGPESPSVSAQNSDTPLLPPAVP
Put plainly: HDAC EMSA activity assay (Nanosyn). In kind it is biochemical. Particulars: recombinant enzyme, read-out: In vitro IC50 HDAC11.

Series [6] is described as follows: Glutathione stability / reactivity assay. In kind it is in vitro ADME. Particulars: GSH adduct formation by LC/MS/MS; KT-531 up to 24 h. Here is the method:
Although covalent modification of HDAC6 was not observed (Figure S2), the PFBS group is susceptible to nucleophilic aromatic substitution by biological nucleophiles. A previously described high-throughput in vitro glutathione-reactivity assay was conducted, where compounds were incubated in the presence of glutathione (GSH) and the formation of a GSH-compound adduct was monitored over time via LC/MS/MS.[50]
Compound was added to PBS and 5 mM GSH to reach a final concentration of 5 μM. […] Samples were vortexed and centrifuged for 45 min at 3220g. Aliquots were diluted by ultrapure water, and used for LC/MS/MS analysis. Peak area ratios were determined and percent compounds remaining was calculated by the following equation: [drawing 1] where peak area ratio (t min) is the peak area ratio of control and test compounds at t min; peak area ratio0min is the peak area ratio of control and test compounds at the zero time point. In vitro half-life (t1/2) = −(0.693/k).

In series [7] the test system is MV4-11. The experiment in a line: Cytotoxicity assay (Cell Titer-Blue, 72 h). Particulars: for IC50: Homo sapiens. In kind it is cell-based.
Where [8] appears, read: MRC9, MRC-9 (healthy fibroblasts), read-out: In cellulo IC50 MRC-9.
Setting [9] is: recombinant enzyme, read-out: In vitro IC50 HDAC6.
Setting [10] is: MV4-11 (AML), read-out: In cellulo IC50 MV4-11.

Structures are written as SMILES. Values joined by “and” are separate entries in the source; they are usually repeats but may differ in a detail not shown here. Equal entries are not always repeated. Where two headings read alike, the source gives them in different places. Some results are limits rather than exact numbers.

T3 sequence (O15379 whole entry): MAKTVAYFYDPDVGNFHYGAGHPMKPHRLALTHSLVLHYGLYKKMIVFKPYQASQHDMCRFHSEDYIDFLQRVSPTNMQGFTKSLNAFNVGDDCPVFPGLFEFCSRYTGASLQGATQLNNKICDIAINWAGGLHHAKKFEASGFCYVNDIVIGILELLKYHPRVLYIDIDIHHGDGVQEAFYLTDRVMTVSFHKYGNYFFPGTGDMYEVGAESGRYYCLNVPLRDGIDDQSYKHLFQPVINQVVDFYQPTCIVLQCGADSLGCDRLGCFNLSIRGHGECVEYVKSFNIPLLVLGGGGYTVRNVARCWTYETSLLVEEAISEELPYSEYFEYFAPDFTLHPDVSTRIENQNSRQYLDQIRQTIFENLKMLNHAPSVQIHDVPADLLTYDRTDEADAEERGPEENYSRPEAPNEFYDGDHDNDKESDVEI
T3 sequence (Q9Y618 395-489 partner limits assumed): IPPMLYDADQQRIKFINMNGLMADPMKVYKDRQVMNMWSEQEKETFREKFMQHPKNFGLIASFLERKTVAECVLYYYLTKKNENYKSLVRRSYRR

`O=C(NO)c1ccc(CNS(=O)(=O)c2c(F)c(F)c(F)c(F)c2F)cc1` [Compound 2, N-Hydroxy-4-(((perfluorophenyl)sulfonamido)methyl)benzamide]: the IC50 (commonly the concentration at which inhibition is half-maximal) in series [1] (read-out: IC50 HDAC6) was 389 nM; in series [2] (setting [8]), more than 25000 nM; in series [3], more than 1000 nM; in series [4] it was more than 1000 nM; in series [5] it was more than 1000 nM.

Regarding `CN(Cc1ccc(C(=O)NO)cc1)S(=O)(=O)c1c(F)c(F)c(F)c(F)c1F` [Compound 3, N-Hydroxy-4-(((2,3,4,5,6-pentafluoro-N-methylphenyl)sulfonamido)methyl)benzamide], the IC50 in series [1] (setting [9]) is 2 nM; in series [2] (setting [8]), more than 30000 nM; in series [3], 184 nM; in series [5], 246 nM. The “reactivity with glutathione” value in series [6] is reported as “react readily with glutathione”.

For `CC(C)N(Cc1ccc(C(=O)NO)cc1)S(=O)(=O)c1c(F)c(F)c(F)c(F)c1F` [Compound 4, N-Hydroxy-4-(((2,3,4,5,6-pentafluoro-N-isopropylphenyl)sulfonamido)methyl)benzamide], the 50% inhibitory concentration (IC50) was 4 nM in series [1] (setting [9]); more than 10000 nM in series [2] (setting [8]); 653 nM in series [3]; 932 nM in series [4]; 941 nM in series [5]. Moreover, in series [6], the “reactivity with glutathione” value is reported as “react readily with glutathione”.

As for `O=C(NO)c1ccc(CN(C2CC2)S(=O)(=O)c2ccc(F)cc2)cc1` [Compound 7, 4-(((N-Cyclopropyl-4-fluorophenyl)sulfonamido)methyl)-N-hydroxybenzamide], the HDAC6 fold-selectivity in series [1] stood at 25.5 fold. Moreover, the IC50 is 11 nM in series [1] (setting [9]); more than 50000 nM in series [2] (setting [8]); 8690 nM in series [7] (setting [10]); 281 nM in series [3]; 841 nM in series [4]; more than 1000 nM in series [5].

For `O=C(NO)c1ccc(CN(C2CC2)S(=O)(=O)c2cc(F)c(F)c(F)c2)cc1` [Compound 8, 4-(((N-Cyclopropyl-3,4,5-trifluorophenyl)sulfonamido)methyl)-N-hydroxybenzamide], the HDAC6 fold-selectivity in series [1] is 20 fold and 19.5 fold. The IC50 in series [1] (setting [9]) was 14 nM; in series [2] (setting [8]) it was more than 25000 nM; in series [7] (setting [10]), 5980 nM; in series [3] it was 273 nM; in series [4], more than 1000 nM; in series [5], more than 1000 nM.

As for `O=C(NO)c1ccc(CN(C2CC2)S(=O)(=O)c2c(F)cc(F)cc2F)cc1` [Compound 9, 4-(((N-Cyclopropyl-2,4,6-trifluorophenyl)sulfonamido)methyl)-N-hydroxybenzamide], in series [1], the HDAC6 fold-selectivity is recorded as 39.4 fold. Besides, the IC50 was 8 nM in series [1] (setting [9]); more than 20000 nM in series [2] (setting [8]); 8940 nM in series [7] (setting [10]); 315 nM in series [3]; more than 1000 nM in series [4]; more than 1000 nM in series [5].

Take `O=C(NO)c1cccc(CN(C2CC2)S(=O)(=O)c2c(F)c(F)c(F)c(F)c2F)c1` [Compound 10, 3-(((N-Cyclopropyl-2,3,4,5,6-pentafluorophenyl)sulfonamido)methyl)-N-hydroxybenzamide]: the IC50 in series [1] (setting [9]) was 488 nM; in series [2] (setting [8]) it was more than 50000 nM; in series [7] (setting [10]), 1900 nM; in series [3], 108 nM; in series [4], more than 1000 nM; in series [5] it was more than 1000 nM. For the same molecule, the “selectivity toward HDAC8” value in series [3] is 4 fold.

Consider `O=C(NO)c1ccc(CN(C2CC2)S(=O)(=O)c2c(F)c(Cl)c(F)c(Cl)c2F)cc1` [Compound 11, 4-(((3,5-Dichloro-N-cyclopropyl-2,4,6-trifluorophenyl)sulfonamido)methyl)-N-hydroxybenzamide], for which the HDAC6 fold-selectivity in series [1] was 14.3 fold. Moreover, the IC50 is 15 nM in series [1] (setting [9]); more than 50000 nM in series [2] (setting [8]); 670 nM in series [7] (setting [10]); 214 nM in series [3]; more than 1000 nM in series [4]; 364 nM in series [5].

`O=C(NO)c1ccc(CN(C2CC2)S(=O)(=O)c2c(F)cc(F)c(Cl)c2F)cc1` [Compound 12, 4-(((3-Chloro-N-cyclopropyl-2,4,6-trifluorophenyl)sulfonamido)methyl)-N-hydroxybenzamide]: in series [1], the HDAC6 fold-selectivity amounted to 22.3 fold. Further, the IC50 in series [1] (setting [9]) is 9 nM; in series [2] (setting [8]) it was more than 20000 nM; in series [7] (setting [10]), 740 nM; in series [3], 201 nM; in series [4], more than 1000 nM; in series [5], more than 1000 nM.

For `O=C(NO)c1ccc(CN(C2CC2)S(=O)(=O)c2c(F)c(F)c(Cl)c(F)c2F)cc1` [Compound 13, 4-(((4-Chloro-N-cyclopropyl-2,3,5,6-tetrafluorophenyl)sulfonamido)methyl)-N-hydroxybenzamide], the IC50 in series [1] (read-out: IC50 HDAC6) is 70 nM; in series [2] (setting [8]) it was more than 30000 nM; in series [7] (setting [10]), 1380 nM; in series [3] it was more than 1000 nM; in series [4], more than 1000 nM; in series [5], more than 1000 nM. Further, the HDAC6 fold-selectivity in series [1] is 14.3 fold and ≥ 14.3* fold.

In the case of `CCCCN(Cc1ccc(C(=O)NO)cc1)C(=O)Nc1ccccc1` [Nexturastat, reference compound], the IC50 in series [7] (setting [10]) amounted to 1680 nM.

Turning to `COc1ccc(Cn2ccc3ccc(C(=O)NO)cc32)cc1` [PCI-34051, reference compound], in series [2], the “activity in MRC9 cells” value was “no observable activity”. Moreover, in series [7], the “activity in MV4-11 cells” value is given as “no observable activity”.

For `O=C(CCCCCCNC(=O)c1cnc(N(c2ccccc2)c2ccccc2)nc1)NO` [Ricolinostat, reference compound], the IC50 in series [2] (MRC9, read-out: In cellulo IC50 MRC-9) was more than 20000 nM; in series [7] (MV4-11, read-out: In cellulo IC50 MV4-11), 810 nM.

These data come from PMC8237267 (Journal of Medicinal Chemistry, 2021).
